Source: BindingDB's records for doi:10.1016/j.bmc.2021.116220 (University of Colorado Anschutz Medical Campus, 2021)

Test: Inhibition of RSK2 in human MOLM-13 assessed as reduction in cell viability measured after 72 hrs by MTS assay

Compound | EC50 [µM]
CC(C)CCn1ccc2cnc(Nc3cc(F)c(O)c(F)c3)nc21 | 1.3
CC(C)CCn1cnc2cnc(Nc3cc(F)c(O)c(F)c3)nc21 | 0.97
COC(=O)CCCc1ccc(-n2cnc3cnc(Nc4cc(F)c(O)c(F)c4)nc32)cc1 | 13.9
Oc1c(F)cc(Nc2ncc3ccn(-c4ccc(N5CCOCC5)cc4)c3n2)cc1F | 0.23
CN1CCN(c2ccc(-n3ccc4cnc(Nc5cc(F)c(O)c(F)c5)nc43)cc2)CC1 | 0.07
Oc1c(F)cc(Nc2ncc3ncn(-c4ccc(CCN5CCOCC5)cc4)c3n2)cc1F | 1.9
